Laboratory results published in publication PMC8667902 (Journal of Enzyme Inhibition and Medicinal Chemistry, 2021).
Values joined by “and” are separate entries in the source; they are usually repeats but may differ in a detail not shown here. Equal entries are not always repeated.

Legend:
[1] = Oxygen Radicals Absorbance Capacity by Fluorescence; details: for ORAC: Trolox as reference; for ORAC-FL value: Trolox equivalents
[2] = tested on: PC12 cells; assay: Neuroprotection against H2O2-induced PC12 cell injury, LDH assay; assay type: cell-based; details: H2O2 alone 712.7, vehicle 602.3
[3] = target: T1, ratAChE (Rattus norvegicus, UniProt P37136); assay: Ellman's method, AChE from rat cortex homogenate; assay type: biochemical; details: for SI = Selectivity index = IC50 (BuChE)/IC50 (AChE): ratBuChE over rat AChE
T1 sequence (P37136 32-614): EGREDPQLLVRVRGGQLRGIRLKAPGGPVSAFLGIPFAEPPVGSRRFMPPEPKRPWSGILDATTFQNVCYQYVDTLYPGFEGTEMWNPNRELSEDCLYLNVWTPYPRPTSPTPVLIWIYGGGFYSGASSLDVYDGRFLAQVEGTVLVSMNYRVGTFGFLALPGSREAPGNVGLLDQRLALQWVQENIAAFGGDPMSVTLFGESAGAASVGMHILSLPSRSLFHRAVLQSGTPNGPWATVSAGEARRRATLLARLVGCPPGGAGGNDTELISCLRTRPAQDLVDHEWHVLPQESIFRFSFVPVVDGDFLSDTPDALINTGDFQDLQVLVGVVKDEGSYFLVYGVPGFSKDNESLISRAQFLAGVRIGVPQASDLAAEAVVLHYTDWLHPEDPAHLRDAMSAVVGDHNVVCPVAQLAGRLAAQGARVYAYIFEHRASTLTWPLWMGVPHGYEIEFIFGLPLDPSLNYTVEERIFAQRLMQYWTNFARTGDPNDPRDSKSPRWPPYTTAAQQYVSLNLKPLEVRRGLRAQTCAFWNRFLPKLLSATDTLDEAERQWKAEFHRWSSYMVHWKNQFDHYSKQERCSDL

[4] = target: eeAChE (Electrophorus electricus, UniProt O42275); assay: Ellman's method, electric eel AChE; assay type: biochemical
[5] = target: ratBuChE (Rattus norvegicus, UniProt Q9JKC1); assay: Ellman's method, BuChE from rat serum; assay type: biochemical
[6] = target: T2, Aβ1–42 (Homo sapiens, UniProt P05067); assay: Inhibition of self-induced Aβ1–42 aggregation; assay type: biochemical; details: read-out: Inhibition of Aβ1–42 aggregation (%) Self-induced, 25 μM; ThT assay
[7] = target: T2, Aβ1–42; assay: Inhibition of Cu2+-induced Aβ1–42 aggregation; assay type: biochemical; details: read-out: Inhibition of Aβ1–42 aggregation (%) Cu^2+-induced
[8] = target: T3, Aβ1–42 fibrils (Homo sapiens, UniProt P05067); assay: Disaggregation of self-induced Aβ1–42 aggregation; assay type: biochemical; details: 25 μM; ThT assay
[9] = target: T3, Aβ1–42 fibrils; assay: Disaggregation of Cu2+-induced Aβ1–42 aggregation; assay type: biochemical; details: 25 μM; ThT assay
[10] = target: T4, huMAO-B (Homo sapiens, UniProt P27338); assay: biochemical
T4 sequence (P27338 1-520): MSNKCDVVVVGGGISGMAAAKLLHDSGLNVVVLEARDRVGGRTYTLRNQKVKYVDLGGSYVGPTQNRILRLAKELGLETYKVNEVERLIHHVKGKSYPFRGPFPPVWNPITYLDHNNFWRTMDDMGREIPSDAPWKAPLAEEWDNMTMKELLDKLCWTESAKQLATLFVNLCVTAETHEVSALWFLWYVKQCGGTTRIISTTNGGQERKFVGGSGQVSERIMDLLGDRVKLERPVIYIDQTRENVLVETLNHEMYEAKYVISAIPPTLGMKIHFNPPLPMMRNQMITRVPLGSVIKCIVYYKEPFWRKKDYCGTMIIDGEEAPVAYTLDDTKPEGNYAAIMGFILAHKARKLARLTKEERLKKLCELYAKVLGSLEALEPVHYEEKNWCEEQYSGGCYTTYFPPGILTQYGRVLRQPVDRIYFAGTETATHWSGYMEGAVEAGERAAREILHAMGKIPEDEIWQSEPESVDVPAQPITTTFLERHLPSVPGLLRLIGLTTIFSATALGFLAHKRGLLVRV

[11] = target: T5, huMAO-A (Homo sapiens, UniProt P21397); assay: huMAO-A inhibition, fluorescence method; assay type: biochemical; details: for inhibition at 10 µM: read-out: MAO-A percent inhibition rate
T5 sequence (P21397 1-527): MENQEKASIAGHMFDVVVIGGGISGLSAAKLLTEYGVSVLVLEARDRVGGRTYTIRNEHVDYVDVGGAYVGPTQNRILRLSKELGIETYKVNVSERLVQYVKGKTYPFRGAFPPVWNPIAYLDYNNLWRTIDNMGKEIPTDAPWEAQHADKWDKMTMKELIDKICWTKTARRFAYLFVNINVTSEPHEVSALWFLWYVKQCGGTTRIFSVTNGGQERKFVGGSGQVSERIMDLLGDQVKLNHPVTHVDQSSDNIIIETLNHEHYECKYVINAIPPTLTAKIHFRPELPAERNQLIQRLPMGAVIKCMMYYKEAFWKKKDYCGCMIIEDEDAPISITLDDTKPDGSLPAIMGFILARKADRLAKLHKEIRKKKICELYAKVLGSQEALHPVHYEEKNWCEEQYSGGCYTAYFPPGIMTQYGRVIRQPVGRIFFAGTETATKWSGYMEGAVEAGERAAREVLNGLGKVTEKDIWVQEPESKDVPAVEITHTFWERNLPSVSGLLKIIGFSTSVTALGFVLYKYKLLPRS

[12] = tested on: AChE; assay: Kinetic characterisation of AChE inhibition; assay type: biochemical; details: Lineweaver-Burk plots, substrate acetylthiocholine
[13] = target: AChE PAS (eeAChE) (Electrophorus electricus, UniProt O42275); assay: Propidium iodide displacement assay; assay type: binding, electric eel; details: read-out: Propidium iodide displacement from AChE PAS (% inhibition)
[14] = target: huAChE-induced Aβ1–40 aggregation (Homo sapiens, UniProt P22303); assay: Inhibition of huAChE-induced Aβ1–40 aggregation; assay type: biochemical; details: compound 100 μM, Aβ1–40 230 μM, Aβ1–40/HuAChE 100/1; ThT; mean ± SEM
[15] = Metal chelation by UV-vis spectrometry and molar ratio method; assay type: physicochemical; details: for shift of characteristic UV peak after adding FeSO4 and ZnCl2 / characteristic UV peak after adding AlCl3 (red shift) / characteristic UV peak after adding CuCl2 (red shift): 37.5 μM; for characteristic UV peak after adding AlCl3 (red shift) / characteristic UV peak after adding CuCl2 (red shift): peak of compound alone: 9d 362 nm, 17f 350 nm
[16] = tested on: PC12 cells; assay: Cytotoxicity in PC12 cells, MTT assay; assay type: cell-based; details: up to 50 µM
[17] = PAMPA-BBB

Sequence of ratBuChE (Q9JKC1 24-597): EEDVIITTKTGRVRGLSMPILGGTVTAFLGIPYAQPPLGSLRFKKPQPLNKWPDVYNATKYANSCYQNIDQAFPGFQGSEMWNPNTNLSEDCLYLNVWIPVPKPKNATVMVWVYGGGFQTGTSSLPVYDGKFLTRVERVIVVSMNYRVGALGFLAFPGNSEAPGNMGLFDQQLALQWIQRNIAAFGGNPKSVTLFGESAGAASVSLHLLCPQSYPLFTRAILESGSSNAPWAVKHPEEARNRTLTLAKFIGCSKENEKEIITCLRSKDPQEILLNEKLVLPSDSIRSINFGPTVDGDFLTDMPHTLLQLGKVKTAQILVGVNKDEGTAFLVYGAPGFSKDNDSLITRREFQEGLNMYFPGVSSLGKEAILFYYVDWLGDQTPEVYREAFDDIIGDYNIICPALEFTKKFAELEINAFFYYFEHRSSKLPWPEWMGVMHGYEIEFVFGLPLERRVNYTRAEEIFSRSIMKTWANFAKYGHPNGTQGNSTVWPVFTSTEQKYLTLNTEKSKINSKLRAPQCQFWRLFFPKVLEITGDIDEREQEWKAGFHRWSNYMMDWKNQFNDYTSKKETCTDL
T3 sequence (P05067 672-713): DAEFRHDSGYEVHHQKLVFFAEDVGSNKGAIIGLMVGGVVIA
T2 sequence (P05067 672-713): as above
Sequence of eeAChE (O42275 24-633): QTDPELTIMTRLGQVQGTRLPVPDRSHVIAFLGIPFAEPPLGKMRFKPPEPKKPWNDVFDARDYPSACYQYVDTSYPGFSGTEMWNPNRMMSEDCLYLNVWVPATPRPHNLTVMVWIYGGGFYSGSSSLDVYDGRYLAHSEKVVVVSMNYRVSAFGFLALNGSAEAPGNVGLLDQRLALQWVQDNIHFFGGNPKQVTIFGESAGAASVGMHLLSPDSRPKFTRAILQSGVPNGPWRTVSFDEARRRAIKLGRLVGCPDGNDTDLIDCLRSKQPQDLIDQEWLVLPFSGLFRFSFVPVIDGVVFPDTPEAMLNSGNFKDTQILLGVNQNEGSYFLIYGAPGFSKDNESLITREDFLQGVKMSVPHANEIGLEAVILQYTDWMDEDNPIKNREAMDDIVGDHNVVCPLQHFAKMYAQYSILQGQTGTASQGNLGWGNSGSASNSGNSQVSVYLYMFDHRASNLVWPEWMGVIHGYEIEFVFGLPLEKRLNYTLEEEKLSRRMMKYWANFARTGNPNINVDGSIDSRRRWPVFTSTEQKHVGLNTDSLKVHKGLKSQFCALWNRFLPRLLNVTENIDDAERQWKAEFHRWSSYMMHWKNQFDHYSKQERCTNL
Sequence of AChE PAS (eeAChE) (O42275 24-633): as above
Sequence of huAChE-induced Aβ1–40 aggregation (P22303 32-614): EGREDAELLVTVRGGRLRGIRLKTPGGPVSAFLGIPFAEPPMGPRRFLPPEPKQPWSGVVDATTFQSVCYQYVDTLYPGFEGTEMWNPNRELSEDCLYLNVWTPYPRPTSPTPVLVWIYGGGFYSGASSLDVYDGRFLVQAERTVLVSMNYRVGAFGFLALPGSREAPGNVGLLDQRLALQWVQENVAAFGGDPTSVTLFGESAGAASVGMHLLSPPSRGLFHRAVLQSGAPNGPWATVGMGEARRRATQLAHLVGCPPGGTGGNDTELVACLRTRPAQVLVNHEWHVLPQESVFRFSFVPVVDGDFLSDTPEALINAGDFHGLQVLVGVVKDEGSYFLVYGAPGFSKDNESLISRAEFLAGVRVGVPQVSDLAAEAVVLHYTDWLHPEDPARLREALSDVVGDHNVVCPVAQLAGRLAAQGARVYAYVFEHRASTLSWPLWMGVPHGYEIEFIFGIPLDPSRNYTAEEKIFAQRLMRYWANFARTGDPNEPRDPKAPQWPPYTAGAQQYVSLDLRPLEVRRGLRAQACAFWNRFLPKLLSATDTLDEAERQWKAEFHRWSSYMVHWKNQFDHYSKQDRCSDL

Row | SMILES | ORAC [1] | IC50 [3] [µM] | SI = Selectivity index = IC50 (BuChE)/IC50 (AChE) [3] | IC50 [4] [µM] | IC50 [5] [µM] | inhibition at 25 µM [6] [%] | inhibition at 25 µM [7] [%] | Disaggregation of Aβ1–42 aggregation (%) Self-induced [8] | Disaggregation of Aβ1–42 aggregation (%) Cu^2+-induced [9] | IC50 [10] [µM] | SI = selectivity index = IC50 (hMAO-A)/IC50 (hMAO-B) [10] | IC50 [11] [µM] | also measured
1 | Cc1c(C)c2c(c(C)c1O)CC[C@@](C)(CCC[C@H](C)CCC[C@H](C)CCCC(C)C)O2 [Vitamin E, α-tocopherol, reference compound] | 2.6 ± 0.06 μM of Trolox equivalent/μM of compounds |  |  |  |  |  |  |  |  |  |  |  | LDH vitality ([2]; PC12, 100 µM H2O2, compound 100 µM): 654.7
2 | COc1ccccc1CN(C)CCCOc1ccc(/C=C/C(=O)c2c(O)cc(OC)c(O)c2OC)cc1 [Compound 17a, (E)-1-(3,6-dihydroxy-2,4-dimethoxyphenyl)-3-(4-(3-((2-methoxybenzyl)(methyl)amino)propoxy)phenyl)prop-2-en-1-one] | 3.1 ± 0.02 μM of Trolox equivalent/μM of compounds | 3.45 ± 0.03 | 94.5 | 2.3 ± 0.01 | 326 ± 10.7 | 67.4 ± 0.04 | 91.1 ± 0.01 | 29.9 ± 0.03% | 84.6 ± 0.03% |  |  |  | inhibition at 10 µM ([10]; read-out: MAO-B percent inhibition rate): 4.4%; inhibition at 10 µM [11]: 18.2%
3 | COc1ccccc1CN(C)CCCOc1ccc(/C=C/C(=O)c2c(O)cc(OC)c(OC)c2OC)cc1 [Compound 9a, (E)-1-(6-Hydroxy-2,3,4-trimethoxyphenyl)-3-(4-(3-((2-methoxybenzyl)(methyl)amino)propoxy)phenyl)prop-2-en-1-one] | 1.01 ± 0.01 μM of Trolox equivalent/μM of compounds | 3.12 ± 0.02 | >160.3 | 1.46 ± 0.02 | > 500 | 57.4 ± 0.01 | 66.2 ± 0.02 | 26.8 ± 0.02% | 54.2 ± 0.02% | 3.8 ± 0.02 |  |  | inhibition at 10 µM [11]: 13.9%
4 | CCN(CCCCCCOc1ccc(/C=C/C(=O)c2c(O)cc(OC)c(OC)c2OC)cc1)Cc1ccccc1OC [Compound 9f, (E)-3-(4-(6-(ethyl(2-methoxybenzyl)amino)hexyloxy)phenyl)-1-(6-hydroxy-2,3,4-trimethoxyphenyl)prop-2-en-1-one] | 0.96 ± 0.01 μM of Trolox equivalent/μM of compounds | 0.61 ± 0.01 | >819.7 | 1.78 ± 0.02 | > 500 | 69 ± 0.01 | 75 ± 0.02 | 62.8 ± 0.03% | 81.4 ± 0.68% | 7.2 ± 0.03 | 6.1 | 43.6 ± 0.68 | 
5 | CCN(CCCCCCOc1ccc(/C=C/C(=O)c2c(O)cc(OC)c(O)c2OC)cc1)Cc1ccccc1OC [Compound 17f, (E)-1-(3,6-dihydroxy-2,4-dimethoxyphenyl)-3-(4-((6-(ethyl(2-methoxybenzyl)amino)hexyl)oxy)phenyl)prop-2-en-1-one] | 3.3 ± 0.01 μM of Trolox equivalent/μM of compounds |  | >1219.5 | 1.88 ± 0.01 | > 500 | 78 ± 0.02 | 93.5 ± 0.01 | 72.3% and 72.3 ± 0.06% | 84.5% and 84.5 ± 0.35% | 8.8 ± 0.06 | 4.3 | 37.5 ± 0.35 | ORAC-FL value [1]: 3.3 eq; type of AChE inhibition [12]: mixed-type AChE inhibition; inhibition at 10 µM [13]: 23.9 ± 1.6%; inhibition at 50 µM [13]: 34.2 ± 2.3%; % Inhibition of huAChE-induced Aβ aggregation [14]: 53.9 ± 3.7%; shift of characteristic UV peak after adding FeSO4 and ZnCl2 [15]: no significant shift; mole fraction at break (molar ratio method, compound-Cu^2+) ([15]; 37.5 μM compound, ascending CuCl2): 1.03; characteristic UV peak after adding AlCl3 (red shift) [15]: 370 nm; characteristic UV peak after adding CuCl2 (red shift) [15]: 422 nm; cytotoxicity in PC12 cells [16]: did not show obvious cytotoxicity; LDH vitality ([2]; PC12, 100 µM H2O2, compound 10 µM): 621.3; LDH vitality ([2]; PC12, 100 µM H2O2, compound 50 µM): 549.7; Papp ([17]; PAMPA): 4.23 ± 0.37 ×10⁻⁶ cm/s; Prediction (BBB penetration) ([17]; PAMPA-BBB): CNS+ (Pe (×10^−6 cm/s) > 3.44 × 10^−6 cm/s possess high BBB permeation)
6 | CCN(CC)CCCCOc1ccc(/C=C/C(=O)c2c(O)cc(OC)c(OC)c2OC)cc1 [Compound 10, (E)-3-(4-(4-(diethylamino)butoxy)phenyl)-1-(6-hydroxy-2,3,4-trimethoxyphenyl)prop-2-en-1-one] | 1.02 ± 0.01 μM of Trolox equivalent/μM of compounds | 4.94 ± 0.02 | >101.2 | 2.72 ± 0.02 | > 500 | 37.7 ± 0.02 | 49.4 ± 0.02 | 25.6 ± 0.03% | 26.2% and 26.2 ± 0.28% | 14.6 ± 0.03 | 1.9 | 27.9 ± 0.28 | 
7 | CCN(CCCCOc1ccc(/C=C/C(=O)c2c(O)cc(OC)c(OC)c2OC)cc1)Cc1ccccc1OC [Compound 9d, (E)-3-(4-(4-(ethyl(2-methoxybenzyl)amino)butoxy)phenyl)-1-(6-hydroxy-2,3,4-trimethoxyphenyl)prop-2-en-1-one] | 1.01 ± 0.2 μM of Trolox equivalent/μM of compounds | 0.32 ± 0.02 | 1409.4 | 1.2 ± 0.01 | 451 ± 1.68 | 72.7 ± 0.02 | 72.4 ± 0.01 | 33.0 ± 0.08% | 63.2 ± 0.63% | 12.3 ± 0.08 | 3.1 | 38.2 ± 0.63 | ORAC-FL value [1]: 0.96 eq; shift of characteristic UV peak after adding FeSO4 and ZnCl2 [15]: no obvious shift; characteristic UV peak after adding AlCl3 (red shift) [15]: 376 nm; characteristic UV peak after adding CuCl2 (red shift) [15]: 444 nm
